Test results as given in US12570614B2, “Phenyl amino pyrimidine compounds and uses thereof” (GlaxoSmithKline LLC, priority 2007, dated 2026).

What was measured:
human JAK2 = human JAK2 (Homo sapiens (Human), UniProt O60674); assay: JAK2 kinase domain Alphascreen enzyme screening; assay type: biochemical; settings: read-out: JAK2_IC50_nM
Protocol: (§1) For screening purposes, compounds (in 100% DMSO) were warmed at 37° C. for at least 20 minutes before use. A […] stock was initially made in assay buffer, where the final concentration of DMSO was 0.3%. The stocks were then diluted in 384 well Optiplates (Packard) where the final concentration of the compound was 5 μM.
The kinase domain of human JAK2 was amplified from U937 mRNA using the polymerase chain reaction with the following primers: […]
The JAK2 PCR products were cloned into the pDest20 destination vector (Gibco). The JAK2 plasmid was then transformed into competent DH10Bac cells (Gibco), and the recombinant baculovirus was prepared via Sf9 insect cell transfection.
(§2) Baculovirus preparations from each of the JAK family members were infected into one litre of […] (Spodoptera frugiperda) cells (Invitrogen) grown in SF900II serum free medium (Invitrogen) to a cell density of approximately 2×10^6 cells/ml. Cells were infected with virus at a cell culture to virus stock ratio of 20:1. Cells were harvested and lysed 48 hours post infection. The GST-tagged JAK kinase domains were purified by affinity chromatography on a GSH agarose column (Scientifix).
Alphascreen phosphotyrosine acceptor beads followed by streptavidin donor beads at a concentration of 1/100 in stop buffer were added to each well under subdued light and incubated for 2-3 hours. The Alphascreen plates were read on a Packard Fusion Alpha instrument

human JAK3 = human JAK3 (Homo sapiens (Human), UniProt P52333); assay: JAK3 kinase domain Alphascreen enzyme screening; assay type: biochemical; settings: read-out: JAK3_ IC50_nM
Sequence of human JAK3 (P52333 822-1111): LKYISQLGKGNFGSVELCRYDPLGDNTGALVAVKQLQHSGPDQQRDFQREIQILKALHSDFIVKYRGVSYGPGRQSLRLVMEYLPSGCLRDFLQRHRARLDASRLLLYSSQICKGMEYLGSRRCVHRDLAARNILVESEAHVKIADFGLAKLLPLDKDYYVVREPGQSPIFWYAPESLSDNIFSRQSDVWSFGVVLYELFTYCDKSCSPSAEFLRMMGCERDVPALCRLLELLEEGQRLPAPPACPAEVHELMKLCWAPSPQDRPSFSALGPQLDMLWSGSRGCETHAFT
Protocol: as §1
The kinase domain of human JAK3 was amplified from U937 mRNA using the polymerase chain reaction with the following primers: […]
The JAK3 PCR products were cloned into the pDest20 destination expression vector (Gibco). The JAK3 plasmid was then transformed into competent DH10Bac cells (Gibco), and the recombinant baculovirus was prepared via Sf9 insect cell transfection.
as §2
The compounds were then incubated with substrate in the presence of either […] ATP for 60 or 90 minutes. […] (final concentration 111 μM) or substrate-2 substrate with the sequence biotin-[…] [SEQ ID NO: 16] (final concentration 133 μM). Alphascreen phosphotyrosine acceptor beads followed by streptavidin donor beads at a concentration of 1/100 in stop buffer were added to each well under subdued light and incubated for 2-3 hours. The Alphascreen plates were read on a Packard Fusion Alpha instrument

[1] = tested on: BaF3 TELJAK cells (BafT_J2); assay: Cellular screening, BaF3 TELJAK2 cells (Alamar Blue); assay type: cell-based; settings: Mus musculus, BaF3; 48-72 hr incubation; read-out: BafT_J2_IC50_μM
Protocol: (§3) For screening purposes, compounds were diluted in 96 well plates at a concentration of 20 μM. Plates were warmed at 37° C. for 30 minutes before the assay was performed.
A TEL/Jak2 fusion was generated by digestion of the TELPCR product with BamH I/Sal I restriction enzymes, digestion of the JAK2 PCR product with Sal I/Not I restriction enzymes, followed by ligation and subcloning of the ligation product into the mammalian expression Vector pTRE 2 (Clontech), which was prepared by digestion with BamH I—Not I restriction enzymes, to give the TEL/Jak2 fusion plasmid pTELJAK2.
(§4) The growth factor dependent myelomonocytic cell line BaF3 bearing the pTET-off plasmid (Clontech) was transfected with either pTELJAK2 or pTELJAK3, and the transfected cells were selected for growth-factor independent cell growth. The BaF3 wild-type cells were cultured in DMEM containing 10% FCS, 10% WEHI 3B conditioned medium. The BaF3 TELJAK cells ([…]) were cultured in DMEM 10% Tet-System Approved FBS (without WEHI 3B conditioned medium).
(§5) Cell suspensions were prepared by harvesting cells from culture (the cells used in this test were in late log phase growth with high viability.) Cells were diluted in the appropriate growth medium, as described above, to 1.1× final concentration (from 50,000 cell/mL to 200,000 cell/mL, depending on cell line).
(§6) Compounds to be tested were added (10 μL, 10× final concentration) to a flat bottomed 96-well plate. The cellular suspension (90 μL per well) was then added, and the plate incubated for 48-72 hr at 37° C., 5% CO2. Alamar Blue 10 μL per well was added and the plates returned to the incubator for a further 4-6 hours.
(§7) Result are given in table 2 where +++ is <1 μM, ++ is <5 μM and + is <20 μM

BaF3 wild-type cells = assay: Cellular screening, BaF3 wild-type cells (Alamar Blue); assay type: cell-based; settings: Mus musculus, 48-72 hr incubation, read-out: BAF3wt_IC50_μM
Protocol: as §3, §4, §5
as §6, with “hours. The plates were then read at 544 nm.” for “hours.”
as §7

CTLL2 = assay: Cellular screening, CTLL2 cells (Alamar Blue); assay type: cell-based; settings: Mus musculus, CTLL-2; 48-72 hr incubation; read-out: CTLL2_IC50_μM
Protocol: as §3, §5
as §6, with “hours. The plates were then read at 544 nm.” for “hours.”
as §7

Sequence of human JAK2 (O60674 849-1124): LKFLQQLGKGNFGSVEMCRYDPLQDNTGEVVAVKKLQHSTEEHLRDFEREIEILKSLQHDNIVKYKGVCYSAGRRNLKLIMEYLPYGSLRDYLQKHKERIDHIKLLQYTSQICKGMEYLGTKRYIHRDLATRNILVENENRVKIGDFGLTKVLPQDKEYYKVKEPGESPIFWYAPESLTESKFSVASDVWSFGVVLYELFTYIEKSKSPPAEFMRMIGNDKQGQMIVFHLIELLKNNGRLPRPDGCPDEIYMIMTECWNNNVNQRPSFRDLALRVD

Row | IC50 (human JAK2) [nM] | IC50 (human JAK3) [nM] | IC50 [1] [nM] | IC50 (BaF3 wild-type cells) [nM] | Compound | IC50 (CTLL2) [nM]
1 | < 100 | < 500 | < 5000 | < 5000 | N#CCNC(=O)c1ccc(-c2ccnc(Nc3ccc(N4CCC(CO)CC4)cc3)n2)cc1 [Compound 42, N-(cyanomethyl)-4-(2-(4-(4-(hydroxymethyl)piperidin-1-yl)phenylamino)pyrimidin-4-yl)benzamide] | < 5000
2 | < 100 | < 1000 | < 5000 | < 5000 | N#CCC(=O)Nc1ccc(-c2ccnc(Nc3ccc(N4CCOCC4)cc3)n2)cc1C(F)(F)F [Compound 76, 2-cyano-N-(4-(2-(4-morpholinophenyl-amino)pyrimidin-4-yl)-2-(trifluoromethyl)phenyl)acetamide] | < 5000
3 | > 1000 | > 1000 | > 20000 | > 20000 | COc1cc(-c2ccnc(Nc3ccc(N4CCOCC4)cc3)n2)ccc1C#N [Compound 16, 2-methoxy-4-(2-(4-morpholinophenyl-amino)pyrimidin-4-yl)benzonitrile] | > 20000
4 | < 100 | < 100 | < 1000 | < 1000 | COc1cc(Nc2nccc(-c3ccc(C(=O)NCC#N)cc3)n2)cc(OC)c1OC [Compound 20, N-(cyanomethyl)-4-(2-(3,4,5-trimethoxyphenyl-amino)pyrimidin-4-yl)benzamide] | < 5000
5 | < 100 | < 100 | – | – | Cc1cnc(Nc2ccc(N3CCOCC3)cc2)nc1-c1ccc(C(=O)NCC#N)cc1 [Compound 92, N-(cyanomethyl)-4-(5-methyl-2-(4-morpholinophenyl-amino)pyrimidin-4-yl)benzamide] | < 1000
6 | < 500 | < 500 | < 20000 | < 20000 | O=C(NCC1CCCO1)c1ccc(-c2ccnc(Nc3ccc(N4CCOCC4)cc3)n2)cc1 (stereo not drawn) [Compound 21, 4-(2-(4-morpholinophenyl-amino)pyrimidin-4-yl)-N-((tetrahydrofuran-2-yl)methyl)benzamide] | < 20000
7 | < 100 | < 500 | < 1000 | < 5000 | N#CCNC(=O)c1ccc(-c2nc(Nc3ccc(N4CCOCC4)cc3)ncc2Cl)cc1 [Compound 53, 4-(5-chloro-2-(4-morpholinophenyl-amino)pyrimidin-4-yl)-N-(cyanomethyl) benzamide] | < 5000
8 | > 1000 | – | – | – | N#Cc1cc(-c2ccnc(Nc3ccc(N4CCOCC4)cc3)n2)ccc1F [Compound 7, 2-fluoro-5-(2-(4-morpholinophenyl-amino)pyrimidin-4-yl)benzonitrile] | –
9 | < 100 | < 100 | – | – | COc1cc(-c2ccnc(Nc3ccc(N4CCOCC4)cc3)n2)ccc1C(=O)NCC#N [Compound 45, N-(cyanomethyl)-2-methoxy-4-(2-(4-morpholinophenyl-amino)pyrimidin-4-yl)benzamide] | < 1000
10 | – | < 100 | < 1000 | < 5000 | N#CCNC(=O)c1ccc(-c2ccnc(Nc3ccc(N4CCC(O)CC4)cc3)n2)cc1 [Compound 36, N-(cyanomethyl)-4-(2-(4-(4-hydroxypiperidin-1-yl)phenylamino)pyrimidin-4-yl)benzamide] | < 5000
11 | – | – | – | – | N#CCNC(=O)c1ccc(-c2ccnc(Nc3ccc(N4CCSCC4)cc3)n2)cc1 [Compound 25, N-(cyanomethyl)-4-(2-(4-thiomorpholino-phenylamino)pyrimidin-4-yl)benzamide] | < 5000
12 | > 1000 | < 500 | > 20000 | – | O=C(Nc1cc[nH]n1)c1ccc(-c2ccnc(Nc3ccc(N4CCOCC4)cc3)n2)cc1 [Compound 22, 4-(2-(4-morpholinophenyl-amino)pyrimidin-4-yl)-N-(1H-pyrazol-3-yl)benzamide] | –
13 | – | – | – | < 5000 | Cc1cnc(Nc2ccc(N3CCCC(O)C3)cc2)nc1-c1ccc(C(=O)NCC#N)cc1 (stereo not drawn) [Compound 46] | < 1000
14 | < 500 | – | – | – | COc1cc(Nc2nccc(-c3ccc(F)c(C#N)c3)n2)cc(OC)c1OC [Compound 8, 2-fluoro-5-(2-(3,4,5-trimethoxyphenyl-amino)pyrimidin-4-yl)benzonitrile] | –
15 | < 500 | – | > 20000 | – | N#Cc1cccc(-c2ccnc(Nc3ccc(N4CCOCC4)cc3)n2)c1 [Compound 5, 3-(2-(4-morpholinophenyl-amino)pyrimidin-4-yl)benzonitrile] | –
16 | – | < 500 | – | < 5000 | CN1CCN(c2ccc(Nc3nccc(-c4ccc(C(=O)NCC#N)cc4)n3)cc2)CC1 [Compound 44, N-(cyanomethyl)-4-(2-(4-(4-methylpiperazin-1-yl)phenylamino)pyrimidin-4-yl)benzamide] | < 5000
17 | – | – | > 20000 | > 20000 | CCOC(=O)c1ccc(-c2ccnc(Nc3ccc(N4CCOCC4)cc3)n2)cc1 [Compound 1, ethyl 4-(2-(4-morpholinophenyl-amino)pyrimidin-4-yl)benzoate] | > 20000
18 | > 1000 | > 1000 | > 20000 | – | N#Cc1ccc(-c2ccnc(Nc3ccc(N4CCOCC4)cc3)n2)cc1Cl [Compound 19, 2-chloro-4-(2-(4-morpholinophenyl-amino)pyrimidin-4-yl)benzonitrile] | –
19 | – | – | – | < 5000 | N#CCC(=O)Nc1ccc(-c2ccnc(Nc3ccc(N4CCOCC4)cc3)n2)cc1 [Compound 85, 2-cyano-N-(4-(2-(4-morpholinophenyl-amino)pyrimidin-4-yl)phenyl)acetamide] | < 1000
20 | < 100 | – | – | – | Cc1cc(-c2ccnc(Nc3ccc(N4CCOCC4)cc3)n2)ccc1C(=O)NCC#N [Compound 11, N-(cyanomethyl)-2-methyl-4-(2-(4-morpholinophenyl-amino)pyrimidin-4-yl)benzamide] | < 5000
21 | < 100 | – | – | < 1000 | N#CCNC(=O)c1ccc(-c2ccnc(Nc3ccc(CN4CCS(=O)(=O)CC4)cc3)n2)cc1 [Compound 90] | < 20000
22 | < 1000 | < 500 | – | – | CC(C)(C#N)NC(=O)c1ccc(-c2ccnc(Nc3ccc(N4CCOCC4)cc3)n2)cc1 [Compound 23, N-(2-cyanopropan-2-yl)-4-(2-(4-morpholinophenyl-amino)pyrimidin-4-yl)benzamide] | –
23 | – | < 100 | < 1000 | < 5000 | Cc1cnc(Nc2ccc(N3CCC(CO)CC3)cc2)nc1-c1ccc(C(=O)NCC#N)cc1 [Compound 39, N-(cyanomethyl)-4-(2-(4-(4-(hydroxymethyl)piperidin-1-yl)phenylamino)-5-methylpyrimidin-4-yl)benzamide] | < 5000
